The text below walks through data of US12606544B2, “JAK1 selective kinase inhibitor” (DIZAL (JIANGSU) PHARMACEUTICAL CO., LTD., priority 2019, dated 2026).

Each structure is given as a SMILES string.

The subject of assay [1] is phosphorylation of STAT6. The assay is described as follows: Cellular p-STAT6 assay, IL-13 stimulated THP-1 cells, flow cytometry. The format is cell-based. Conditions: Homo sapiens, THP-1, THP-1 cells, IL-13 10 ng/ml; read-out: pSTAT6 IC50. The procedure:
To detect phosphorylated STAT6 (pSTAT6), THP-1 cells were harvested by centrifugation at 250 g for 5 min and resuspended in assay medium (RPMI1640+10% FBS) to 2×10^5 cells/well. Test compounds were applied to assay plates in serial dilution from 1 μM to 0.3 nM in DMSO. THP-1 cells were incubated with serial diluted compounds for 60 min at room temperature, followed by stimulation of interleukin (IL-13, 10 ng/ml) for 30 min, fixed in Cytofix buffer (BD Biosciences), and permeabilized in 90% methanol on ice. PE anti-pSTAT6 (BD Biosciences) antibodies were stained for 60 min at room temperature before being analyzed by flow cytometry. In the assay the compounds were thus diluted and dose-response curves for inhibition of the signal determine the IC50 for the compounds.

In assay [2] the target is T1, JAK2 (Homo sapiens, UniProt O60674).
T1 construct: purchased Carna Biosciences
The assay is described as follows: Lance Ultra Kinase Assay, recombinant JAK2. Particulars: 5 mM ATP. Type of assay: biochemical. The procedure: (§1) Recombinant JAK1, JAK2, JAK3 and TYK2 purchased from Carna Biosciences. The inhibition potency of compounds against JAK1, JAK2, JAK3 and TYK2 was assessed using Lance Ultra Kinase Assay.
(§2) In brief, recombinant kinases were pre-incubated in the presence or absence of compound at room temperature for 15 minutes. The reaction was initiated by the addition of 5 mM ATP and substrate peptide which could be phosphorylated by kinases in the reaction. After 60 minutes incubation, the reaction was stopped by the addition of the detection reagent mix containing EDTA. The fluorescence was measured at 615 nm and 665 nm, respectively with excitation wavelength at 320 nm. The calculated signal ratio of 665 nm/615 nm is proportional to the kinase activity.

The target of assay [3] is T2, JAK3 (Homo sapiens, UniProt P52333).
T2 construct: purchased Carna Biosciences
T2 sequence (P52333 1-1124): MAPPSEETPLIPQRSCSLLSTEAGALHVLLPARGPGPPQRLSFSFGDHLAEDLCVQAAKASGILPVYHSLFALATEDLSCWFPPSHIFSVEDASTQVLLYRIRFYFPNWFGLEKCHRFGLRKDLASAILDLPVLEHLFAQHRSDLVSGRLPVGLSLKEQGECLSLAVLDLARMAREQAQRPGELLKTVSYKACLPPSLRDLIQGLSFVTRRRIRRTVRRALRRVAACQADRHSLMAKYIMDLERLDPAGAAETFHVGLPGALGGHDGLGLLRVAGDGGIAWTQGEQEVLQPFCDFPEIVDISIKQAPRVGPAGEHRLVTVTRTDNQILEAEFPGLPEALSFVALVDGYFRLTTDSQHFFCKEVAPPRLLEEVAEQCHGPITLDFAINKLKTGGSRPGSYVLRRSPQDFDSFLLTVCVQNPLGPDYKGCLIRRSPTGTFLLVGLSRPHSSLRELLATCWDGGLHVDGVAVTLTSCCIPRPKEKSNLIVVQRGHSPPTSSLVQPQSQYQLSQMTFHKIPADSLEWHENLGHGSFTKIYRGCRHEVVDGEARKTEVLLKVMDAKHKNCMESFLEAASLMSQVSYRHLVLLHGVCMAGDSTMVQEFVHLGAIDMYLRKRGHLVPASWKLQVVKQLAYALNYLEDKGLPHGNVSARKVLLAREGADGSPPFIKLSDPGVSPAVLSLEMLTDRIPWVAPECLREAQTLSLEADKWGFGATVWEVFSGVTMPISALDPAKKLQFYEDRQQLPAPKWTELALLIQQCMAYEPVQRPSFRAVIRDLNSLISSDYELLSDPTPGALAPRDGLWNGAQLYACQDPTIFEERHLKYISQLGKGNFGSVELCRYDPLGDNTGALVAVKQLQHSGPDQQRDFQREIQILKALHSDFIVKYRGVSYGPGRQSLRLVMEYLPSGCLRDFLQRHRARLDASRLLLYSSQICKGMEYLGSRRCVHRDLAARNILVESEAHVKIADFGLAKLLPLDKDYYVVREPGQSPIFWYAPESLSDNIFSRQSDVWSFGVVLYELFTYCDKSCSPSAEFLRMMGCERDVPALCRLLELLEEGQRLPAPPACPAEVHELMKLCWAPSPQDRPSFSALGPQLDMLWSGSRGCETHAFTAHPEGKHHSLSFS
The assay is described as follows: Lance Ultra Kinase Assay, recombinant JAK3. Type of assay: biochemical. Particulars: 5 mM ATP. The procedure: as §1, §2

The target of assay [4] is T3, TYK2 (Homo sapiens, UniProt P29597).
T3 construct: purchased Carna Biosciences
In words: Lance Ultra Kinase Assay, recombinant TYK2. Conditions: 5 mM ATP. The format is biochemical. The protocol: as §1, §2

The target of assay [5] is T4, JAK1 (Homo sapiens, UniProt P23458).
T4 construct: purchased Carna Biosciences
The assay is described as follows: Lance Ultra Kinase Assay, recombinant JAK1. The format is biochemical. Particulars: 5 mM ATP. The protocol: as §1, §2

T4 sequence (P23458 whole entry): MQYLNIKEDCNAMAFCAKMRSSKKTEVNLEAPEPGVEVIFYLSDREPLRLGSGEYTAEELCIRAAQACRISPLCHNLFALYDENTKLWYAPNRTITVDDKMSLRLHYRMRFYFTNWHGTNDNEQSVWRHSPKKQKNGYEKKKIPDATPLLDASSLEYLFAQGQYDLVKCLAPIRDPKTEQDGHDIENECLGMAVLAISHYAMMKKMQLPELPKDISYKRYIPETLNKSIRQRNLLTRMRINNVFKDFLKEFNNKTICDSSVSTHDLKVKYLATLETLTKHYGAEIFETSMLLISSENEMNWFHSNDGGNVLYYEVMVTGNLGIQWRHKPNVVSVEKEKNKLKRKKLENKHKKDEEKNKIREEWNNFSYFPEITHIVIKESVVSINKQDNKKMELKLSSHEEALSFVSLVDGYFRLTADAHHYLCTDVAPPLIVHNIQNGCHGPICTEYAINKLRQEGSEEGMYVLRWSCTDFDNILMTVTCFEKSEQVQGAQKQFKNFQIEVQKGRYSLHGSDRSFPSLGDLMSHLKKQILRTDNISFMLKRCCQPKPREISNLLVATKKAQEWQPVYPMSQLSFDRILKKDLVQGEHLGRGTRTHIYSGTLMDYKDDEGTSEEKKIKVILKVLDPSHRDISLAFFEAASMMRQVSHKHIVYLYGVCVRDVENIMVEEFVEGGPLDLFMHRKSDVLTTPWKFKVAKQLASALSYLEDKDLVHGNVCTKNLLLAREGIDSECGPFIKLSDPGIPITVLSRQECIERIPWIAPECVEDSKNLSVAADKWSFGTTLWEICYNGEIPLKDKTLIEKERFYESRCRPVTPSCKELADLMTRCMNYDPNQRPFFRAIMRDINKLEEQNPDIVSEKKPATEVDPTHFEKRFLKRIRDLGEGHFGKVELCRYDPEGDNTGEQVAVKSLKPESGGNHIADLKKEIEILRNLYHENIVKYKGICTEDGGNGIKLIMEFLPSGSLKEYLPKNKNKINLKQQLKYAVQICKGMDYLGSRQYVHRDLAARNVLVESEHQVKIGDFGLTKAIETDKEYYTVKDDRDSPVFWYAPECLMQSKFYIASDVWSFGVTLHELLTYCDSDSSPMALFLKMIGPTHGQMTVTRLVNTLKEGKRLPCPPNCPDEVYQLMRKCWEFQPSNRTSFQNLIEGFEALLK
T1 sequence (O60674 whole entry): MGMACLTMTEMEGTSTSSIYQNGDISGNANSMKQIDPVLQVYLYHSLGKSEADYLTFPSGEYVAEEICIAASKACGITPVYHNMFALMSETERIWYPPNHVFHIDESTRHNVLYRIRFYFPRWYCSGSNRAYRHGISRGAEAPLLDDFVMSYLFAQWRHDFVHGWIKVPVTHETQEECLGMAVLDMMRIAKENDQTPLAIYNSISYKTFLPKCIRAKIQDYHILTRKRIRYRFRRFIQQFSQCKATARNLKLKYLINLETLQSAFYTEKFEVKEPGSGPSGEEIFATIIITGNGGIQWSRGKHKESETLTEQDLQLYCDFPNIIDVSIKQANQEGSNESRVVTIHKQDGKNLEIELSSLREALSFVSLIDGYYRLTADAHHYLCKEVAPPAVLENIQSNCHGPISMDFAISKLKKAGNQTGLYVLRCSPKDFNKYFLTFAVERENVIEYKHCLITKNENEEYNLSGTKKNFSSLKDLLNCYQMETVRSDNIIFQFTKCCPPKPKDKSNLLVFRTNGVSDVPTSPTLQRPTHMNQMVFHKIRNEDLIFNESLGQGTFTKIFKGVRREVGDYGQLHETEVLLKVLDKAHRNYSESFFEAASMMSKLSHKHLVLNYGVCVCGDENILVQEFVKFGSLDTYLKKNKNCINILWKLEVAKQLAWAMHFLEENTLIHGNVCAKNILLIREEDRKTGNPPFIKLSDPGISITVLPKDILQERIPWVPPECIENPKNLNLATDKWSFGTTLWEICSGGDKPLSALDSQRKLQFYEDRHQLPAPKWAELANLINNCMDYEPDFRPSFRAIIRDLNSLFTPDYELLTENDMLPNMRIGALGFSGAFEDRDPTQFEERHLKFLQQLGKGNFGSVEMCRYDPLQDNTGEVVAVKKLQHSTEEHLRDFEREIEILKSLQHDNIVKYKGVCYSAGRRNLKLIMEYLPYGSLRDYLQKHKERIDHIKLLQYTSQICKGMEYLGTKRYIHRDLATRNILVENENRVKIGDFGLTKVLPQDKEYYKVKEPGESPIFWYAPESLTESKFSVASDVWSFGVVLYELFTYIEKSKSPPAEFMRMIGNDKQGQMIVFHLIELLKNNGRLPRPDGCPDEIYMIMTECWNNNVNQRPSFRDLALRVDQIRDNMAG
T3 sequence (P29597 whole entry): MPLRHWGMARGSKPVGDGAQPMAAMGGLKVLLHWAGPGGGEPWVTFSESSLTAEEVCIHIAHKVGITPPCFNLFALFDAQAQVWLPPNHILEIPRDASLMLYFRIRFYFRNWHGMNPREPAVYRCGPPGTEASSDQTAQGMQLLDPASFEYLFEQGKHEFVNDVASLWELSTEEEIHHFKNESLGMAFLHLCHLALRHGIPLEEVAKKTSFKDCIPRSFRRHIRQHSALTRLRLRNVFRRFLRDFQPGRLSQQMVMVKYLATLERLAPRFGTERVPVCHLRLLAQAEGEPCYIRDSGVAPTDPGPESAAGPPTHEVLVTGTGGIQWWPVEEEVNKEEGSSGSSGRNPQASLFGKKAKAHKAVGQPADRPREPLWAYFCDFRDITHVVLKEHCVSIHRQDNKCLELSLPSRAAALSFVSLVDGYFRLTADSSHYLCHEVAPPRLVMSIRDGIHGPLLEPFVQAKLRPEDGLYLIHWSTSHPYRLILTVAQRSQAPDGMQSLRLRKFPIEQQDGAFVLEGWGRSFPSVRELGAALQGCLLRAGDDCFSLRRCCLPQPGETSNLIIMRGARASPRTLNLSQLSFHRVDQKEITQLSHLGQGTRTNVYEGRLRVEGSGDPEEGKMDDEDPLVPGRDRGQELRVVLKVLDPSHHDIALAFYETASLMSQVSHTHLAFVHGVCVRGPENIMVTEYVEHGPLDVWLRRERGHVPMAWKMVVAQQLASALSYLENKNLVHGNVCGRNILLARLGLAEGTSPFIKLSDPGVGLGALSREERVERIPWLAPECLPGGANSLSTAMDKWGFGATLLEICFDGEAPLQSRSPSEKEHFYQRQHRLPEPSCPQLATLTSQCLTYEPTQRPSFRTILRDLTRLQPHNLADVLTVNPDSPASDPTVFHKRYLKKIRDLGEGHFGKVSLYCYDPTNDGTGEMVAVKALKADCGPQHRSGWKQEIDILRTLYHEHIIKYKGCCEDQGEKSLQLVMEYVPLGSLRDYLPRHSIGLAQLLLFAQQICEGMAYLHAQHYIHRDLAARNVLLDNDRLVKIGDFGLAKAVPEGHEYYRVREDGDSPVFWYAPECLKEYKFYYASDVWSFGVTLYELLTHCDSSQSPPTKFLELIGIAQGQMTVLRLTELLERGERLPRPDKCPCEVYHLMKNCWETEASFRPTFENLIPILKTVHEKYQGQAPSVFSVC

On to `COC[C@H](C(=O)Nc1cccc2c(-c3nc(Nc4ccc(NC(=O)OC)nc4)ncc3F)c[nH]c12)N1CCN(C)CC1` [Example 52, methyl (R)-(5-((5-fluoro-4-(7-(3-methoxy-2-(4-methylpiperazin-1-yl)propanamido)-1H-indol-3-yl)pyrimidin-2-yl)amino)pyridin-2-yl)carbamate], for which the concentration for half-maximal inhibition (IC50) in assay [1] was 15 nM; in assay [2], 363 nM; in assay [3], over 10000 nM; in assay [4], 2170 nM; in assay [5], 0.43 nM.
On to `COC[C@H](C(=O)Nc1cccc2c(-c3nc(Nc4ccc(OCc5ncco5)nc4)ncc3F)c[nH]c12)N1CCN(C)CC1` [Example 54, (R)-N-(3-(5-fluoro-2-((6-(oxazol-2-ylmethoxy)pyridin-3-yl)amino)pyrimidin-4-yl)-1H-indol-7-yl)-3-methoxy-2-(4-methylpiperazin-1-yl)propanamide], for which the IC50 in assay [1] is 15.3 nM; in assay [2] it was 219 nM; in assay [3], over 10000 nM; in assay [4], 4880 nM; in assay [5], 0.86 nM.
For `COC[C@H](C(=O)Nc1cccc2c(-c3nc(Nc4cccc(CCC(=O)OC)n4)ncc3F)c[nH]c12)N1CCN(C)CC1` [Example 55, methyl (R)-3-(6-((5-fluoro-4-(7-(3-methoxy-2-(4-methylpiperazin-1-yl)propanamido)-1H-indol-3-yl)pyrimidin-2-yl)amino)pyridin-2-yl)propanoate] the same measures were 15.3 nM, 2710 nM, over 10000 nM, over 10000 nM and 12.8 nM.
On to `COC[C@H](C(=O)Nc1cccc2c(-c3nc(Nc4cc(CO)c5cn[nH]c5c4)ncc3F)c[nH]c12)N1CCN(C)CC1` [Example 61, (R)-N-(3-(5-fluoro-2-((4-(hydroxymethyl)-1H-indazol-6-yl)amino)pyrimidin-4-yl)-1H-indol-7-yl)-3-methoxy-2-(4-methylpiperazin-1-yl)propanamide], for which the 50% inhibitory concentration (IC50) in assay [1] was found to be 17.7 nM; in assay [2], 8 nM; in assay [3], 3590 nM; in assay [4], 194 nM; in assay [5], 0.11 nM.
In the same order, the values of `COCCOc1ccc(Nc2ncc(F)c(-c3c[nH]c4c(NC(=O)[C@@H](COC)N5CCN(C)CC5)cccc34)n2)cn1` [Example 65, (R)-N-(3-(5-fluoro-2-((6-(2-methoxyethoxy)pyridin-3-yl)amino)pyrimidin-4-yl)-1H-indol-7-yl)-3-methoxy-2-(4-methylpiperazin-1-yl)propanamide] are 18.8 nM, 198 nM, over 10000 nM, 1260 nM and 0.32 nM.
As to `CNC(=O)COc1cncc(Nc2ncc(F)c(-c3c[nH]c4c(NC(=O)[C@@H](COC)N5CCN(C)CC5)cccc34)n2)c1` [Example 68, (R)-N-(3-(5-fluoro-2-((5-(2-(methylamino)-2-oxoethoxy)pyridin-3-yl)amino)pyrimidin-4-yl)-1H-indol-7-yl)-3-methoxy-2-(4-methylpiperazin-1-yl)propanamide], the 50% inhibitory concentration (IC50) in assay [1] was 20.9 nM; in assay [2], 71 nM; in assay [3] it was 5360 nM; in assay [4] it was 1230 nM; in assay [5] it was 0.22 nM.

One may read the IC50 as the concentration that inhibits the measured activity by half.
